pEC50: −log10 of the molar value.
Assays:
SARS-CoV-2 [1] = assay: microbe, parasite or virus in culture; assay type: cell-based; details: Severe acute respiratory syndrome coronavirus 2, Vero, read-out: EC50 antiviral replication effect
SARS-CoV-2 [2] = assay: microbe, parasite or virus in culture; assay type: cell-based

## CCC(CC)COC(=O)[C@H](C)N[P@](=O)(OC[C@H]1O[C@@](C#N)(c2ccc3c(N)ncnn23)[C@H](O)[C@@H]1O)Oc1ccccc1 [Remdesivir]
SARS-CoV-2 [1]
  pEC50: 6.62
SARS-CoV-2 [2]
  virus entry blocking: could not block the virus entry

Reference: PMC7700809 (Molecular Biomedicine, 2020)
